For 96 molecules, Ki results are on record in the kinase profiling compilation of Christmann-Franck et al. (2016).

Where only a bound is given, the exact number is not on record here.

Sequence of SGK1 (human) (O00141 whole entry, looked up): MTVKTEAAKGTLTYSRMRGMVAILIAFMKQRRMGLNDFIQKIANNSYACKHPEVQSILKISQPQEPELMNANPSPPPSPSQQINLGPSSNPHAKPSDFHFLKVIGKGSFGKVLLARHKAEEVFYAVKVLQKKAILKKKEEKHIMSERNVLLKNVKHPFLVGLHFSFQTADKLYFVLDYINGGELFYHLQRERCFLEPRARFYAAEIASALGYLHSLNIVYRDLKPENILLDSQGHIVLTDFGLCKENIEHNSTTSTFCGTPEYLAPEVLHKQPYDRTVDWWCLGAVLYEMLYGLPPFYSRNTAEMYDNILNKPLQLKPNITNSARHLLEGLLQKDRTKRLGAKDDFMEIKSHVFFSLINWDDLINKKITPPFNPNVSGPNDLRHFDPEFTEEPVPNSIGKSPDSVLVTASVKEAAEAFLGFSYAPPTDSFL

This test addresses SGK1 (human) (UniProt O00141). Kind of test: Flashplate.
As a reminder, the Ki is a measure of affinity in units of concentration, obtained from inhibition or displacement. High values mean a looser hold on the target, low ones a stronger hold on the target. The molecule `CCCOn1c2ccc(Cl)cc2c(=O)c2c(C)nn(C)c21` returned an inhibitory constant (Ki) of more than 10 µM.

`CCOc1nc(NC(=O)Cc2cc(OC)c(S(C)(=O)=O)cc2OC)cc(N)c1C#N` yielded an inhibitory constant (Ki) of more than 10 µM.

In turn, `Oc1ccc(-c2nc(-c3ccc(F)cc3)c(-c3ccncc3)[nH]2)cc1` displayed a Ki of more than 6.31 µM.

`CCOc1nc(C(=O)NCc2ccc(S(C)(=O)=O)cc2)cc(N)c1C#N`: the Ki was more than 6.31 µM.

As for `CCc1nc(-c2cccc(C)c2)c(-c2ccnc(NC(=O)c3ccccc3)c2)s1`, the Ki is more than 10 µM.

For the molecule `Cc1cc(N2CCOCC2)cc2[nH]c(-c3c(NC[C@@H](O)c4cccc(Cl)c4)cc[nH]c3=O)nc12`, the Ki is more than 10 µM.

Molecule `COCCO[C@H]1CC[C@H](n2nc(-c3ccc(Nc4nc5cc(C)cc(Cl)c5o4)cc3)c3c(N)ncnc32)CC1` had a Ki of more than 10 µM.

`O=C(Nc1cnccn1)Nc1ccnc2cc(C(F)(F)F)ccc12` came in with an inhibitory constant (Ki) of 1 µM.

Turning to `NC[C@@H](NC(=O)c1ccc(-c2ccncc2)cc1)c1ccccc1`, the inhibition constant (Ki) is 0.794 µM.

As for `COc1ccc(-c2ccc(NC(=O)Nc3cccc(Br)c3)cc2)c2c(N)noc12`, the Ki is more than 10 µM.

`NCCNS(=O)(=O)c1cccc(C(=O)Nc2ccc(-c3n[nH]c(=O)c4ccccc34)cc2)c1` returned a Ki of more than 10 µM.

As for `c1cnc2nc(-c3ccc4[nH]ncc4c3)c(NC3CCCCC3)n2c1`, the Ki came out at 2.51 µM.

`NC(=O)C1CCCN(C(=O)c2cc(-c3ccc4[nH]ncc4c3)on2)C1` (stereo unspecified) displayed a Ki of more than 10 µM.

`Cc1ccc(-c2ccc(NC(=O)Nc3cccc(Br)c3)cc2)c2c(N)n[nH]c12`: the Ki was determined as 5.01 µM.

In the case of `COc1cccc([C@H](C)NC(=O)c2ccc(-c3ccncc3)cc2)c1`, the Ki was more than 10 µM.

`Cc1ccc(NC(=O)Nc2ccc(-c3coc4ncnc(N)c34)cc2)cc1`: the Ki is more than 10 µM.

As for `O=C(Nc1cnc2[nH]cc(-c3ccccc3)c2c1)c1ccc(Cl)cc1`, the Ki is 5.01 µM.

`COc1cc(-c2nn([C@H]3CC[C@H](N4CCN(C(C)=O)CC4)CC3)c3ncnc(N)c23)ccc1NC(=O)c1cc2ccccc2n1C`: the Ki was more than 10 µM.

Molecule `N#Cc1ccc2nc(N)n(-c3nc(-c4ccccc4)cs3)c2c1` had a Ki of more than 10 µM.

On to `O=C(Nc1cccc(Cl)c1)Nc1ncc(CCNc2ncnc3ccsc23)s1`, for which the inhibition constant (Ki) is more than 10 µM.

As to `COc1cc(Nc2ncc3c(n2)-c2ccc(Cl)cc2C(c2c(F)cccc2OC)=NC3)ccc1C(=O)O`, the Ki was more than 10 µM.

`O=C(NCc1ccc(Cl)cc1)c1cc2c(-c3ccccc3)n[nH]c2s1` came in with a Ki of 1 µM.

`CCN1C(=O)N(C)c2cnc(Nc3ccc(C(=O)NC4CCN(C)CC4)cc3OC)nc2N1C1CCCC1` registered a Ki of more than 10 µM.

`CC(=O)Nc1cc(N)c(C#N)c(-c2ccsc2)n1` gave a Ki of more than 10 µM.

As to `Cc1n[nH]c2ccc(-c3cncc(OCC(CN)Cc4ccccc4)c3)cc12` (stereo unspecified), the Ki is 1.26 µM.

Regarding `NC(=O)c1cc2c(-c3ccc(F)cc3)cncc2s1`, the Ki came to 3.98 µM.

In turn, `Oc1ccc(Nc2ncnc3scc(Cl)c23)cc1` displayed a Ki of more than 10 µM.

As to `Cc1cc(C)cc(NC(=O)Nc2ccc(-c3cccc4c3CNC4=O)c(C(F)(F)F)c2)c1`, the inhibition constant (Ki) was more than 10 µM.

On to `CNC(=O)c1cc(Oc2ccc(NC(=O)Nc3cccc(C(F)(F)F)c3)cc2)ccn1`, for which the inhibition constant (Ki) was more than 10 µM.

The molecule `CNC1CCN(c2nc3[nH]cc(C(=O)O)c(=O)c3c(C)c2Br)C1` (stereo unspecified) showed a Ki of more than 10 µM.

`C/C(=N/NC(=N)N)c1cc(NC(=O)NCCCN(C)CCCNC(=O)Nc2cc(/C(C)=N\NC(=N)N)cc(/C(C)=N/NC(=N)N)c2)cc(/C(C)=N/NC(=N)N)c1` gave a Ki of more than 10 µM.

As to `COc1cc(Nc2nccc(Nc3cc(C4CCCCC4)no3)n2)cc(OC)c1OC`, the Ki is more than 10 µM.

For `O=C1/C(=N\Nc2cccc3c(=O)[nH][nH]c(=O)c23)C(c2ccccc2)=NN1c1ccccc1`, the inhibition constant (Ki) was more than 10 µM.

As to `COC(=O)c1cc2c(-c3cccc(F)c3)cncc2s1`, the Ki was more than 10 µM.

The molecule `COc1ccc(/C=C2/S/C(=N/c3ccccc3)NC2=O)cc1O` yielded a Ki of 5.01 µM.

For the molecule `CSc1cnc2c(ccc3cnccc32)c1O`, the Ki came to 0.158 µM.

Molecule `Cc1ccc(CNc2c(Nc3ccncc3)c(=O)c2=O)cc1C` returned a Ki of more than 10 µM.

`C/C(=N/NC(=N)N)c1cc(NC(=O)c2cccc(C(=O)Nc3cc(/C(C)=N\NC(=N)N)cc(/C(C)=N/NC(=N)N)c3)c2)cc(/C(C)=N/NC(=N)N)c1`: the Ki was 1.26 µM.

`C[C@]1(O)C[C@@H](c2nc(-c3ccc4ccc(-c5ccccc5)nc4c3)c3c(N)nccn32)C1`: the Ki was more than 10 µM.

Molecule `O=C(Nc1cnccn1)Nc1ccnc2ccccc12` yielded an inhibition constant (Ki) of 1.26 µM.

The molecule `Cc1cccc(NC(=O)Nc2ccc(-c3csc4c(C#CC(C)(C)N)cnc(N)c34)cc2)c1` displayed an inhibition constant Ki of 3.16 µM.

Take `NCCOc1cncc(/C=C/c2ccncc2)c1`: the Ki is more than 10 µM.

Consider `COc1ccc(C(=O)N2c3ccccc3Sc3c(Cl)cncc32)cc1`, for which the Ki came out at 0.398 µM. That is a sub-micromolar value.

`O=c1[nH]c2cc(Cl)cc(Cl)c2c(-c2cc(Cl)ccc2O)c1O` came in with a Ki of more than 10 µM.

With `c1ccc(COc2ccc(Nc3ncnc4ccccc34)cc2)cc1`, the Ki is more than 10 µM.

For `Nc1ncnc2onc(-c3ccc(NC(=O)Nc4cccc(C(F)(F)F)c4)cc3)c12`, the inhibitory constant (Ki) was more than 10 µM.

Turning to `CC1=NN(c2ccc(C(=O)O)cc2)C(=O)/C1=C/c1c(C)c(C#N)c2nc3ccccc3n2c1O`, the inhibition constant Ki was more than 10 µM.

Molecule `NC(=O)c1cc2c(-c3ccccc3)cncc2s1` yielded a Ki of 5.01 µM.

In turn, `Cc1cc(O)ccc1-n1cc(C(N)=O)c(=O)c2ccc(-c3ccncc3)cc21` came in with a Ki of more than 10 µM.

Molecule `c1ccc(-c2c[nH]c3ncnc(N4CCCCC4)c23)cc1` showed a Ki of more than 6.31 µM.

Take `Cc1cccc(C2(c3cccc(C)c3)CC2C(=O)Nc2ccncc2)c1` (stereo unspecified): the Ki is more than 10 µM.

`CCOC(=O)C1=c2s/c(=C/c3ccco3)c(=O)n2C(N)=C(C#N)C1c1ccco1` (stereo unspecified) registered a Ki of more than 10 µM.

The molecule `Nc1nccc(-c2c(-c3ccc(F)cc3)ncn2C2CCNCC2)n1` showed a Ki of 6.31 µM.

For the molecule `COc1ccc(-c2ccc(NC(=O)Nc3ccc(F)c(C)c3)cc2)c2c(N)noc12`, the Ki was more than 10 µM.

`N[C@H](COc1cc(/C=C/c2ccncc2)cnc1Cl)Cc1c[nH]c2ccccc12` came in with a Ki of more than 10 µM.

`O=C1Cc2c([nH]c3ccc([N+](=O)[O-])cc23)-c2ccccc2N1` registered a Ki of more than 10 µM.

`CC(C)(C)C(=O)Oc1ccc2c(c1)nc(NC(=O)c1cccc([N+](=O)[O-])c1)n2CCCO` gave an inhibition constant Ki of more than 10 µM.

Molecule `COc1ccc2c(NC(=O)Nc3cc(C(F)(F)F)ccn3)ccnc2c1` showed a Ki of more than 10 µM.

In the case of `Cc1c[nH]c2nccc(Oc3c(F)cc(Nc4cc(Cl)nc(N)n4)cc3F)c12`, the Ki is 0.251 µM. This lies in the sub-micromolar range.

On to `Nc1ccc(-c2cncc(OC[C@@H](N)Cc3c[nH]c4ccccc34)c2)cc1C(=O)c1ccccc1`, for which the Ki was more than 10 µM.

Take `CC(C)(C)c1ccc2nc(-c3n[nH]c4ccccc34)[nH]c2c1`: the Ki is 1.26 µM. In other words, the single-digit micromolar range.

`O=C(Nc1cnccn1)Nc1ccnc2ccc(C(F)(F)F)cc12` displayed a Ki of 3.98 µM.

The molecule `O=c1nc(-c2cc3c(Oc4ccc(I)cc4)cncc3s2)[nH]o1` registered a Ki of 0.794 µM. This Ki lies about 5-fold lower than the previous one.

Turning to `CNC(=O)c1cc2c(-c3ccccc3F)n[nH]c2s1`, the Ki was determined as 3.16 µM.

As to `COc1cccc(NC(=O)c2cnn3c(-c4ccccc4)ccnc23)c1`, the Ki is more than 10 µM.

Consider `O=C(c1cccc(-c2cnc3[nH]ccc3c2)c1)N1CCOCC1`, for which the Ki was more than 10 µM.

Turning to `Cc1csc(NC(=O)c2sc3nc(-c4ccncc4)ccc3c2N)n1`, the inhibitory constant (Ki) is more than 10 µM.

As for `Cc1cc(OC[C@@H]2CC[C@H](C(=O)O)C2)c(NC(=O)Nc2cnc(C#N)cn2)cc1Cl`, the Ki turned out to be 6.31 µM. This lies in the single-digit micromolar range.

The molecule `CC(C)Nc1c(-c2ccc3[nH]ncc3c2)nc2ncccn12` came in with an inhibitory constant (Ki) of 1.26 µM.

Regarding `NCCC(C(=O)Nc1ccc2[nH]ncc2c1)c1ccc(Cl)c(Cl)c1` (stereo unspecified), the inhibition constant (Ki) was 0.02 µM.

`C[C@@H](N)C1CCC(C(=O)Nc2ccncc2)CC1` (stereo partly specified) yielded a Ki of more than 10 µM.

In turn, `O=c1[nH]c2sc3c(c2c2nc(-c4cccnc4)nn12)CCCC3` showed a Ki of more than 10 µM.

In turn, `Cc1cccc(NC(=O)Nc2ccc(-c3csc4c(-c5cnn(C)c5)cnc(N)c34)cc2)c1` showed a Ki of more than 10 µM.

The molecule `NC[C@@H](O)[C@@H](O)Cn1cc(I)c2c(N)ncnc21` had a Ki of 5.01 µM.

`CCOc1nc(C(=O)NCc2ccccc2S(N)(=O)=O)cc(N)c1C#N` displayed a Ki of more than 6.31 µM.

In turn, `O=C(O)c1cc2c(-c3cccc(F)c3)cncc2s1` displayed a Ki of more than 10 µM.

For `Cc1n[nH]c2ccc(-c3cncc(OC[C@@H](N)Cc4cccc(Cl)c4)c3)cc12`, the Ki was found to be 0.158 µM.

For `Nc1ncnc2scc(-c3ccc(NC(=O)Nc4ccccc4)cc3)c12`, the Ki is 3.98 µM. Compared with the last molecule, the Ki is about 25-fold higher.

Regarding `Nc1ncnc2c1sc1ncnc(N)c12`, the Ki is 0.158 µM.

As for `Nc1ncc(-c2ccoc2)c2scc(-c3ccc(NC(=O)Nc4cccc(F)c4)cc3)c12`, the Ki came to 6.31 µM.

Consider `CCNNc1cc(C)c(C#N)c2nc3ccccc3n12`, for which the Ki was more than 10 µM.

In turn, `O=c1c2c([nH]c3cc(-c4ccco4)nn13)CSC2` returned a Ki of more than 10 µM.

In turn, `Cc1cccc(NC(=O)Nc2ccc(-c3csc4c(C#CCCCCCCCCN)cnc(N)c34)cc2)c1` displayed a Ki of 2 µM. That is a single-digit micromolar value.

Consider `Clc1cc(-c2c[nH]c3ncccc23)cc(NCc2ccccc2)n1`, for which the Ki worked out at 0.398 µM.

`CSc1ccc2nc3c(c(Cl)c2c1)CCNC3=O`: the Ki was more than 10 µM.

`CN(C)C(=O)c1c(-c2ccc3[nH]ncc3c2)nnn1Cc1ccccc1` returned a Ki of 2 µM. This counts as single-digit micromolar.

`COCCn1cc(-c2ccncn2)c(-c2ccc(Cl)cc2)n1` displayed a Ki of more than 10 µM.

Molecule `Cc1cc(O)ccc1-n1cc(C(=O)NN)c(=O)c2ccc(-c3ccncc3)cc21` showed a Ki of more than 10 µM.

Molecule `c1ccc(CNc2nc3ccc(-c4ccncc4)cc3s2)cc1` had a Ki of 2.51 µM. This lies in the single-digit micromolar range.

In the case of `O=C(Cc1ccc(Cl)cc1)Nc1[nH]nc2c1CCC2`, the Ki is more than 10 µM.

As to `O=C1Nc2ccccc2Nc2nnccc21`, the Ki was more than 10 µM.

For `COc1cccc2c1Nc1cc(Nc3ccncc3)ccc1C(=O)N2`, the Ki is more than 10 µM.

In the case of `Cc1cccc(NC(=O)Nc2ccc(-c3noc4ncnc(N)c34)cc2)c1`, the Ki is more than 10 µM.

In turn, `NC(=O)c1cc(-c2cccc(N)c2)cc2cccnc12` yielded a Ki of more than 10 µM.

Regarding `CSc1ccccc1CNc1ncc([N+](=O)[O-])c(NCC2CCC(CN)CC2)n1` (stereo unspecified), the Ki was found to be 6.31 µM.

Consider `CNC(=O)N1CCN(CCCOc2ccc3c(c2)-c2[nH]nc(-c4ccc(C#N)nc4)c2C3)CC1`, for which the Ki is more than 10 µM.
